For `CN(C)Cc1cnc2cc(NC(=O)c3ccc(-c4ccc(Cl)cc4)cc3)ccc2c1` [Example 1, 4′-chloro-N-[3-[(dimethylamino)methyl]-7-quinolinyl][1,1′-biphenyl]-4-carboxamide], the melting point (commonly the temperature of the solid-liquid transition) was 236 to 238 °C.

As for `O=C(Nc1ccc2cc(CN3CCCC3)cnc2c1)c1ccc(-c2ccccc2)cc1` [Example 2, N-[3-(1-pyrrolidinylmethyl)-7-quinolinyl][1,1′-biphenyl]-4-carboxamide], the melting point lay in the range of 192 to 194 °C.

As for `COc1ccc(-c2ccc(C(=O)Nc3ccc4cc(CN5CCCC5)cnc4c3)cc2)cc1` [Example 3, 4′-methoxy-N-[3-(1-pyrrolidinylmethyl)-7-quinolinyl][1,1′-biphenyl]-4-carboxamide], the melting point lay within 202 to 204 °C. For the compound `O=C(Nc1ccc2cc(CN3CCCC3)cnc2c1)c1ccc(-c2ccc(F)cc2)cc1` [Example 4, 4′-fluoro-N-[3-(1-pyrrolidinylmethyl)-7-quinolinyl][1,1′-biphenyl]-4-carboxamide], the melting point was 210 to 212 °C. Under `Cc1ccc(-c2ccc(C(=O)Nc3ccc4cc(CN5CCCC5)cnc4c3)cc2)cc1` [Example 5, 4′-methyl-N-[3-(1-pyrrolidinylmethyl)-7-quinolinyl][1,1′-biphenyl]-4-carboxamide] stands 206 to 208 °C.

In turn, `O=C(Nc1ccc2cc(CN3CCCC3)cnc2c1)c1ccc(-c2ccc(Cl)cc2)cc1` [Example 6, 4′-chloro-N-[3-(1-pyrrolidinylmethyl)-7-quinolinyl][1,1′-biphenyl]-4-carboxamide] showed a melting point of 217 to 220 °C.

The compound `O=C(Nc1ccc2cc(CN3CCCC3)cnc2c1)c1ccc(-c2ccccc2)nc1` [Example 7, 6-phenyl-N-[3-(1-pyrrolidinylmethyl)-7-quinolinyl]nicotinamide] returned a melting point of 208 to 210 °C. The result for `O=C(Nc1ccc2cc(CN3CCCC3)cnc2c1)c1ccc(-c2ccc(F)cc2)nc1` [Example 9, 6-(4-fluorophenyl)-N-[3-(1-pyrrolidinylmethyl)-7-quinolinyl]nicotinamide] reads 218 to 220 °C; that for `Cc1ccc(-c2ccc(C(=O)Nc3ccc4cc(CN5CCCC5)cnc4c3)cn2)cc1` [Example 10, 6-(4-methylphenyl)-N-[3-(1-pyrrolidinylmethyl)-7-quinolinyl]nicotinamide], 226 to 228 °C. Regarding `O=C(Nc1ccc2cc(CN3CCCC3)cnc2c1)c1ccc(-c2ccc(Cl)cc2)nc1` [Example 11, 6-(4-chlorophenyl)-N-[3-(1-pyrrolidinylmethyl)-7-quinolinyl]nicotinamide], the melting point is 223 to 225 °C.

Take `O=C(Nc1ccc2cc(CN3CCCC3)cnc2c1)N1CCC(c2ccccc2)CC1` [Example 12, 4-phenyl-N-[3-(1-pyrrolidinylmethyl)-7-quinolinyl]-1-piperidine carboxamide]: the melting point lay in the range of 222 to 224 °C. Under `COc1ccc(C2CCN(C(=O)Nc3ccc4cc(CN5CCCC5)cnc4c3)CC2)cc1` [Example 13, 4-(4-methoxyphenyl)-N-[3-(1-pyrrolidinylmethyl)-7-quinolinyl]-1-piperidine carboxamide] stands 241 to 243 °C; under `O=C(Nc1ccc2cc(CN3CCCC3)cnc2c1)N1CCC(c2ccc(F)cc2)CC1` [Example 14, 4-(4-fluorophenyl)-N-[3-(1-pyrrolidinylmethyl)-7-quinolinyl]-1-piperidine carboxamide], 239 to 241 °C; under `Cc1ccc(C2CCN(C(=O)Nc3ccc4cc(CN5CCCC5)cnc4c3)CC2)cc1` [Example 15, 4-(4-methylphenyl)-N-[3-(1-pyrrolidinylmethyl)-7-quinolinyl]-1-piperidine carboxamide], 244 to 246 °C. Under `O=C(Nc1ccc2cc(CN3CCCC3)cnc2c1)N1CCC(c2ccc(Cl)cc2)CC1` [Example 16, 4-(4-chlorophenyl)-N-[3-(1-pyrrolidinylmethyl)-7-quinolinyl]-1-piperidine carboxamide] stands 249 to 251 °C; under `Cc1c(NC(=O)c2ccc(-c3ccccc3)cc2)ccc2cc(CN3CCCC3)cnc12` [Example 17, N-[8-methyl-3-(1-pyrrolidinylmethyl)-7-quinolinyl][1,1′-biphenyl]-4-carboxamide], 184 to 186 °C; under `COc1ccc(-c2ccc(C(=O)Nc3ccc4cc(CN5CCCC5)cnc4c3C)cc2)cc1` [Example 18, 4′-methoxy-N-[8-methyl-3-(1-pyrrolidinylmethyl)-7-quinolinyl][1,1′-biphenyl]-4-carboxamide], 210 to 213 °C. The result for `Cc1ccc(-c2ccc(C(=O)Nc3ccc4cc(CN5CCCC5)cnc4c3C)cc2)cc1` [Example 20, 4′-methyl-N-[8-methyl-3-(1-pyrrolidinylmethyl)-7-quinolinyl][1,1′-biphenyl]-4-carboxamide] reads 177 to 179 °C.

For `Cc1c(NC(=O)c2ccc(-c3ccc(Cl)cc3)cc2)ccc2cc(CN3CCCC3)cnc12` [Example 21, 4′-chloro-N-[8-methyl-3-(1-pyrrolidinylmethyl)-7-quinolinyl][1,1′-biphenyl]-4-carboxamide], the melting point is 227 to 229 °C. The result for `CCN(CC)Cc1cnc2cc(NC(=O)c3ccc(-c4ccc(Cl)cc4)cc3)c(OC)cc2c1` [Example 22, 4′-chloro-N-{3-[(diethylamino)methyl]-6-methoxy-7-quinolinyl}[1,1′-biphenyl]-4-carboxamide] reads 271 °C (dec.); that for `COc1cc2cc(CN3CCCC3)cnc2cc1NC(=O)c1ccc(-c2ccc(Cl)cc2)cc1` [Example 23, 4′-chloro-N-[6-methoxy-3-(1-pyrrolidinylmethyl)-7-quinolinyl][1,1′-biphenyl]-4-carboxamide], 271 °C (dec.); that for `COc1cc2cc(CN3CCCCC3)cnc2cc1NC(=O)c1ccc(-c2ccc(Cl)cc2)cc1` [Example 24, 4′-chloro-N-[6-methoxy-3-(1-piperidinylmethyl)-7-quinolinyl][1,1′-biphenyl]-4-carboxamide], 236 °C (dec.).

On to `O=C(Nc1cc2ncc(CN3CCCC3)cc2cc1Cl)c1ccc(-c2ccc(Cl)cc2)cc1` [Example 25, 4′-chloro-N-[6-chloro-3-(1-pyrrolidinylmethyl)-7-quinolinyl][1,1′-biphenyl]-4-carboxamide], for which the melting point is 188 °C (dec.). The result for `Cc1ccc(-c2ccc(C(=O)Nc3ccc4cc(CN5CCC(C(N)=O)CC5)cnc4c3C)cc2)cc1` [Example 26, 1-[(8-methyl-7-{[(4′-methyl-1,1′-biphenyl-4-yl)carbonyl]amino}-3-quinolinyl)methyl]-4-piperidine carboxamide] reads 287 °C (dec.); that for `O=C(Nc1ccc2cc(CN3CCCCCC3)cnc2c1)c1ccc(-c2ccc(Cl)cc2)cc1` [Example 27, N-[3-(1-azepanylmethyl)-7-quinolinyl]-4′-chloro[1,1′-biphenyl]-4-carboxamide], 204 °C. The result for `Cc1ccc(-c2ccc(C(=O)Nc3ccc4cc(CN5CCCCCC5)cnc4c3)cc2)cc1` [Example 28, N-[3-(1-azepanylmethyl)-7-quinolinyl]-4′-methyl[1,1′-biphenyl]-4-carboxamide] reads 209 °C; that for `O=C(Nc1ccc2cc(CN3CCCCCC3)cnc2c1)c1ccc(-c2ccc(F)cc2)cc1` [Example 29, N-[3-(1-azepanylmethyl)-7-quinolinyl]-4′-fluoro[1,1′-biphenyl]-4-carboxamide], 202 °C. Under `COc1ccc(-c2ccc(C(=O)Nc3ccc4cc(CN5CCCCCC5)cnc4c3)cc2)cc1` [Example 30, N-[3-(1-azepanylmethyl)-7-quinolinyl]-4′-methoxy[1,1′-biphenyl]-4-carboxamide] stands 212 °C (dec.); under `O=C(Nc1ccc2cc(CN3CCCCCC3)cnc2c1)c1ccc(-c2ccccc2)cc1` [Example 31, N-[3-(1-azepanylmethyl)-7-quinolinyl][1,1′-biphenyl]-4-carboxamide], 205 °C (dec.); under `O=C(Nc1ccc2cc(CN3CCCCCC3)cnc2c1)c1ccc(-c2ccc(Cl)cc2)nc1` [Example 32, N-[3-(1-azepanylmethyl)-7-quinolinyl]-6-(4-chlorophenyl)nicotinamide], 233 °C (dec.). Regarding `Cc1ccc(-c2ccc(C(=O)Nc3ccc4cc(CN5CCCCCC5)cnc4c3)cn2)cc1` [Example 33, N-[3-(1-azepanylmethyl)-7-quinolinyl]-6-(4-methylphenyl)nicotinamide], the melting point is 237 °C (dec.). Under `O=C(Nc1ccc2cc(CN3CCCCCC3)cnc2c1)N1CCC(c2ccc(Cl)cc2)CC1` [Example 34, N-[3-(1-azepanylmethyl)-7-quinolinyl]-4-(4-chlorophenyl)-1-piperidine carboxamide] stands 247 °C (dec.).

In the case of `Cc1ccc(C2CCN(C(=O)Nc3ccc4cc(CN5CCCCCC5)cnc4c3)CC2)cc1` [Example 35, N-[3-(1-azepanylmethyl)-7-quinolinyl]-4-(4-methylphenyl)-1-piperidine carboxamide], the melting point is 240 °C (dec.). Under `Cc1cc2cc(CN3CCCC3)cnc2cc1NC(=O)c1ccc(-c2ccc(Cl)cc2)cc1` [Example 39, 4′-chloro-N-[6-methyl-3-(1-pyrrolidinylmethyl)-7-quinolinyl][1,1′-biphenyl]-4-carboxamide] stands 214 to 217 °C; under `NC(=O)C1CCN(Cc2cnc3cc(NC(=O)c4ccc(-c5ccc(F)cc5)cc4)ccc3c2)CC1` [Example 42, 1-[(7-{[(4′-fluoro[1,1′-biphenyl]-4-yl)carbonyl]amino}-3-quinolinyl)methyl]-4-piperidine carboxamide], 261 to 265 °C. Regarding `CC(=O)NC1CCN(Cc2cnc3cc(NC(=O)c4ccc(-c5ccc(F)cc5)cc4)ccc3c2)C1` (stereo not shown) [Example 43, N-(3-{[3-(acetylamino)-1-pyrrolidinyl]methyl}-7-quinolinyl)-4′-fluoro[1,1′-biphenyl]-4-carboxamide], the melting point fell in the range of 250 to 253 °C. The result for `CCNC(=O)CC1CCN(Cc2cnc3cc(NC(=O)c4ccc(-c5ccc(F)cc5)cc4)ccc3c2)CC1` [Example 44, N-[3-({4-[2-(ethylamino)-2-oxoethyl]-1-piperidinyl}methyl)-7-quinolinyl]-4′-fluoro[1,1′-biphenyl]-4-carboxamide] reads 224 to 227 °C.

(Values after US7183415B2, “Quinoline compound” (Takeda Pharmaceutical Company Limited, priority 2001, dated 2007).)
